Test results reported in patent publication US20060188867A1, “Method of cryopreserving cells and tissues by liposomal delivery of sugars to enhance post-thaw viability” (Canadian Blood Services, priority 2005, published 2006).

System: red blood cells (RBCs)
Experiment: flow cytometry of liposomal loading of carboxyfluorescein/trehalose into red blood cells, FIGS. 1A-1E
Format: cell-based, human
Settings: no liposomes (FIG. 1C)
Method: However, it should be noted that the ratio of DPPC to cholesterol can, of course, be varied, as will be appreciated by those of ordinary skill in the art. The liposomes also have an aqueous core that can be composed of, by way of example only, 3.3 mM NaCl, 40 mM KCl, 1.7 mM glucose, 6.7 mM HEPES, 200 mM sucrose or trehalose and 100 μM 5(6)-carboxyfluorescein (CF). As it is known in the art, 5(6)-CF is an impermeable fluorescent marker with a molecular weight similar to that of sucrose and trehalose. This marker can be used to detect the liposome population using flow cytometry and is thus a useful and reliable indicator of loading efficiency. A single uniform population and intense FITC (Fluorescein isothiocyanate) peak verify liposome homogeneity and entrapment of the marker in the aqueous core.
In order to validate the methods described herein, human red blood cells and TF-1 (CRL2003, ATTC) cells were used as […] model systems. The mechanism of liposomal interaction with the cell is believed to be cell-type dependent and is believed to involve processes of adsorption, fusion and endocytosis.
FIGS. 1A to 1E are flow cytometry plots used to examine the effects of loading trehalose into red blood cells (RBCs). Liposomes composed of DPPC/cholesterol in the ratio of 70:30 were constructed so as to have a concentration of 0.29M trehalose inside and outside. […]

Substance: 5(6)-carboxyfluorescein [CF]
- permeation of free CF into RBCs (fluorescence of RBCs in CF-containing media): cannot cross into RBCs
